According to patent US8937096B2, “Use of benzo-fused heterocyle sulfamide derivatives for the treatment of mania and bipolar disorder” (priority 2005, dated 2015):
Like-named read-outs stand apart in the source and are kept apart here.

Columns and labels:
[1] = system: hippocampal kindled seizures; assay: Rat Hippocampal Kindling Test (Interruption of Kindled State); type: in vivo; conditions: reference drugs; suppression at doses associated with toxicity
Protocol: In the present rapid hippocampal kindling model adult male Sprague-Dawley rats (300-400 g) were surgically implanted with bipolar electrodes placed in the hippocampus. […] One week later, the rats received 2-3 supra-threshold stimulations delivered every 30 min before treatment with test compound, to ensure stability of the behavioral seizure stage and after-discharge duration. Fifteen minutes after the last stimulation, a single dose of vehicle or test compound was administered i.p. (intraperitoneally). After 15 min, each rat was then stimulated every 30 min for 3 to 4 h. After each stimulation, individual seizure scores and after-discharge durations were recorded. The group mean±SEM were calculated for each parameter. Eight rats per dose and a minimum of four doses were used to establish an ED50 value. Efficacy was measured as the ability of a compound to modify the seizure score (severity of spread) and after-discharge duration (ADD; excitability) of the generalized seizures.
Thus, according to the theories presented in current literature (Ghaemi, S. N., Boiman, E. E., and Goodwin, F. K., Soc. of Bio. Psychiatry, (1999), vol. 45, pp 137-144; Stoll, A. L., and Severus, W. E., Harvard Rev. Psychiatry, July/August (1996), Vol. 4, No. 2, pp 77-89) a decrease in seizure score and/or ADD may also be predictive of the ability of a test compound to treat the cycling associated with bipolar disorder.

CH3/HeJ mice = assay: Tail Suspension Test (Acute); type: in vivo, mouse; conditions: for ED50: Mus musculus, po, 7 min; for Immobility Emax % of C / Mobility Emax % of C: p.o., CH3/HeJ mice, 7-min session
Protocol: In the tail suspension test (TST) for evaluating compounds for anti-depressant activity, mice are suspended by their tails to a metal or plastic rod using clip or scotch tape. The test is usually quite short, 5-7 min, and the amount of time the mice spend immobile is recorded either manually or with an automated device. Agents which have antidepressant activity, decrease the duration of immobility of mice in this test.
The basic apparatus for the tail suspension assay consisted of a yellow plastic chamber (91×45×10 cm) divided for four arenas 25, 20, 20 and 25 cm wide separated by yellow plastic walls 0.75 cm thick. Mice were suspended by their tails using a rubber clip (7 cm long) attached to the plastic rod that was placed on the top of a testing chamber half way through its deep dimension. Each experimental session was videotaped and analyzed for four animals in the real time by computer software (“Depression Scan” Clever Sys Inc.). The computer justification of immobility was calibrated with the use of animals dosed with lorazepam while justification of movement was calibrated with the high dose of desipramine treated animals. […] The settings were adjusted separately for dark (CH3/HeJ and C57BI/6J strains) and white mice (Balb/cJ and A/J strains). A yellow background was used for dark mice and a blue background was used to record movements of white mice.
The ability of a test compound to decrease the duration of immobility, or increase mobility was measured using the TST procedure described above.
Data were analyzed using GraphPad Prism software (GraphPad Software, Inc. San Diego, Calif.). For the comparison of the effect of different doses for various drugs on immobility in the TST one-way analyses of variance (ANOVA) were used followed by Dunnett's multiple comparison test. […] The ED50 and Emax values were compared using two-way ANOVA and Bonferroni post-hoc test.
Positive controls included duloxetine (DLX), venlafaxine (VLX) and desipramine (DMI) which were dissolved in 0.5% methylcellulose and lorazepam (LOR) which was suspended in 0.5% of methylcellulose in water by sonication. All drugs and vehicles were administered orally (p.o.) by gavage in a volume of 10 mL/kg.
The mice were ordered 5 weeks old and at the beginning of experiment their weight was 20±5 g. Animals were housed in groups of four in plastic cages at an ambient temperature of 21° C. to 23° C. with an automated 12/12 hours light/dark cycle and access to water and a commercial rodent food ad libitum.
Each experiment consisted of seven treatment groups with four animals per group. A total of 28 animals per experiment were used. Every two consecutive experiments (1 & 2, 3 & 4, 5 & 6 and 7 & 8) were exact replicas of each other. […] One treatment group of four animals in each experiment was a vehicle treated group. In addition to the vehicle treated group, the effects of DMI at 6 mg/kg, 12 mg/kg, 30 mg/kg, 60 mg/kg and 120 mg/kg and LOR at 5 mg/kg were tested in experiments 1 and 2. […] In experiments 5 and 6 the effects of DLX at 6 mg/kg, 12 mg/kg, 30 mg/kg, 60 mg/kg, 120 mg/kg and LOR at 5 mg/kg were tested.

Sprague Dawley rats = assay: Forced Swim Test (Acute); type: in vivo, rat
Protocol: The Forced Swim test (FST) is a commonly used procedure to screen compounds for possible antidepressant properties. This test is also known as the behavioral despair test. Rodents placed in […] tanks filled with water present a wide variety of escape or immobility behaviors. Antidepressant drugs from different classes markedly increase escape behaviors and/or decrease latency or duration of immobility.
Venlafaxine and desipramine were dissolved in water. All drugs and their vehicles were administered orally (p.o.) by gavage in a volume of 5 mL/kg.
Male Sprague Dawley rats (140 to 160 g) from Charles River Laboratories Wilmington, Mass. were used. The animals went through a five-day quarantine period before being subjected to the experimental procedure.
Animals were housed in groups of four in plastic cages at an ambient temperature of 21° C. to 23° C. with an automated 12 hour light/dark cycle and access to water and commercial rodent food ad libitum. Animals were not handled more than for the routine bedding change prior to pre-test swim session.
Each experiment consisted of seven treatment groups with n=4 animals per group. A total of 28 animals per experiment were used. Two consecutive experiments (1 and 2, 3 and 4, and 5 and 6) were exact replicas of each other. […] One treatment group of n=4 animals in each experiment was a vehicle treated group. […] In experiments 5 and 6 the effects of venlafaxine and maprotyline at 12 mg/kg, 30 mg/kg, and 60 mg/kg were tested.
The basic apparatus consisted of a cylinder (46 cm tall×˜20 cm diameter) filled with water to 30 cm deep, at a temperature of 25±1° C. The automated version of the FST was used to perform the experiments. Plumbing for automatic filling and emptying water connected the four cylinders. Cylinders were placed in the dividing chambers 25 cm wide to separate animals visually. Each 5-minute experimental session was videotaped and analyzed in real time by computer software (Clever Systems, Inc.) for four animals at a time. The immobility, swimming, climbing and escape times were recorded by the software. The four activities are defined as follow. Immobility: the animal floats motionlessly or makes only those movements necessary to keep its head above water; Climb: the animal vigorously moves vertically while scratching the wall around the cylinder; Swim: the animal moves horizontally around in the cylinder more than necessary to keep its head above water; and Escape: sum of all vigorous active movements.
The ability of a test compound to decrease the duration or frequency of immobility, or changes in swimming, climbing and escape times, was measured using the FST procedure described above. […] The analysis of the results in the studies described was focused on the immobility time during 5-minute test session.
There were two swim sessions in each experiment. First, a pre-test swim session for 15 minutes was performed. Following 48 hours later was a test session of 5-minute duration. Upon completion of a swim session, each animal was placed under a heat lamp in a cage with soft bedding for approximately 15 minutes to prevent hypothermia.
Animals were pre-treated with a vehicle or test compound after completing the pre-test swim session, then 24 hours later and then shortly prior to the 5-minute test session; i.e., three injections were given to each animal between the two swim sessions that occurred on 3 consecutive days.
Data were analyzed using GraphPad Prism software (GraphPad Software, Inc. San Diego, Calif.). For the comparison of the effect of different doses for various drugs on immobility in the FST one-way ANOVA was used followed by Dunnett's multiple comparison test. […] The ED50 and Emax values were statistically compared using two-tail t-test.

submissive rats = assay: Dominant-Submissive Relations (DSR) assay: Reduction of Submissive Behavior Model (RSBM) of depression; type: in vivo, rat
Protocol: (§1) The DSR assay is divided into two models: Reduction of Dominant Behavior Model (RDBM) of mania and Reduction of Submissive Behavior Model (RSBM) of depression. The RDBM, wherein the dominant animals are treated with test compound, is predictive of the ability of the test compound to treat mania. The RSBM, wherein the submissive animals are treated with test compound, is predictive of the ability of the test compound to treat depression.
(§2) Male Sprague Dawley rats (140 to 160 g) from Charles River Laboratories Wilmington, Mass. were used in this assay. Shipments of rats were received at two-week intervals. Each shipment went through five-day quarantine, one-week acclimation period, and one-week selection process, followed by five-weeks of drug or vehicle treatment to those pairs selected.
(§3) Rats were housed four per cage. Access to food was restricted to one hour per day after testing on Monday through Thursday. After testing on Friday, rats had free access to food until being fasted again on Sunday. At no time were the rats deprived of water. The food deprivation periods used had little effect on weight gain as the average weight of rats was about 300 g at the end of the study. At the conclusion of experiment rats were sacrificed by decapitation, the trunk blood and brains were collected for in vitro experiments and drug concentration measurements.
(§4) The basic testing apparatus consisted of two chambers connected with a tunnel only large enough to allow one rat to pass through at a time. On the floor, at the mid-point of the tunnel was a container of sweetened milk. This basic apparatus was replicated, so that a total of four pairs of rats can be video tracked simultaneously. The camera can distinguish rats marked by different colors. Thus, the rats' heads were colored for the purpose of video tracking, red in one cage and yellow in the other cage. Only one animal at a time can have comfortable access to the feeder, but both animals can drink milk during the five-minute daily session. During the five-minute daily sessions, time spent in the feeder zone by each rat was recorded by the video tracking software and saved into a text file.
The test began with a random assignment of rats into pairs. Each member of a pair was placed in an opposite chamber of the testing apparatus. The time spent in the feeder zone by each animal was recorded. During the first week (five days) of testing the animals habituate to the new environment. Dominance was assigned to the animal with the highest score during the second week of testing if three criteria were achieved. First, there must have been a significant difference (two-tailed t-test, P<0.05) between the average daily drinking scores of both animals. Second, the dominant animal score must have been at least 25% greater than the submissive animal's score. Finally, there must have been no “reversals” during the pair selection week where the putative submissive rat out-scored its dominant partner on isolated occasions. Ideally there were minimal reversals during the acclimation week as well. About twenty-five to thirty-three percent of the initial animal pairs achieved these criteria and only these pairs were continued in the study. […]
(§5) Significant differences between time spent on the feeder by dominant and submissive rats were determined by ANOVA using GraphPad Prism software (GraphPad Software, Inc. San Diego, Calif.) followed by a two-tailed t-test (P<0.05). Comparisons were made between treatment groups using normalized dominance level values in paired animals. The dominance level is a value that measures social relation between paired subjects. Dominance level (DL)=FTD−FTS where FTD is the feeder time of dominant rats and FTS is the feeder time of submissive rats. The normalization was conducted according to the formula: Dominance Level(week n in %)=(Dominance Level(week n))/(Dominance Level(week 2) […]

dominant rats = assay: Dominant-Submissive Relations (DSR) assay: Reduction of Dominant Behavior Model (RDBM) of mania; type: in vivo, rat
Protocol: as §1, §2, §3, §4
The test began with a random assignment of rats into pairs. Each member of a pair was placed in an opposite chamber of the testing apparatus. The time spent in the feeder zone by each animal was recorded. During the first week (five days) of testing the animals habituate to the new environment. Dominance was assigned to the animal with the highest score during the second week of testing if three criteria were achieved. First, there must have been a significant difference (two-tailed t-test, P<0.05) between the average daily drinking scores of both animals. Second, the dominant animal score must have been at least 25% greater than the submissive animal's score. Finally, there must have been no “reversals” during the pair selection week where the putative submissive rat out-scored its dominant partner on isolated occasions. Ideally there were minimal reversals during the acclimation week as well. About twenty-five to thirty-three percent of the initial animal pairs achieved these criteria and only these pairs were continued in the study.
as §5

`NC(=O)N1c2ccccc2C=Cc2ccccc21` [Carbamazepine] was tested, and the “seizure activity in the hippocampal kindling model” value (“seizure activity” below) [1] was “significantly suppressed seizure activity”.

With `CNCC[C@H](Oc1cccc2ccccc12)c1cccs1` [DLX, duloxetine] the ED50 (CH3/HeJ mice; read-out: Immobility ED50) was 31.4 mg/kg, the ED50 (CH3/HeJ mice; read-out: Mobility ED50) was 61.5 mg/kg and the “Immobility Emax % of C” value (CH3/HeJ mice) was 80.4 % of C. The “Mobility Emax % of C” value (CH3/HeJ mice) was 175.5 % of C.

For `CNCCCN1c2ccccc2CCc2ccccc21` [DMI, desipramine], the “Emax (immobility) in the FST” value (Sprague Dawley rats; p.o.) was 50.0 ± 8.4 s, the “doses at which effect on immobility was statistically significant vs vehicle” value (Sprague Dawley rats; p.o.) was 6 mg/kg, 12 mg/kg, 30 mg/kg, and 60 mg/kg and the “Immobility Emax % of C” value (CH3/HeJ mice) was 38.5 % of C. The “Mobility Emax % of C” value (CH3/HeJ mice) was 195.7 % of C.

With `CCC1(C)CC(=O)NC1=O` (stereo not shown) [Ethosuximide] the “seizure activity” value [1] was “ineffective”.

In the case of `O=C1Nc2ccc(Cl)cc2C(c2ccccc2Cl)=NC1O` (stereo not shown) [Lorazepam, lorazepam], the “effect on the rats' immobility time” value (Sprague Dawley rats; 1 mg/kg p.o., negative control) is reported as “no significant effect”.

With `O=C1NC(=O)C(c2ccccc2)(c2ccccc2)N1` [Phenytoin] the “seizure activity” value [1] was “significantly suppressed seizure activity”.

`CNCCC(Oc1ccc(C(F)(F)F)cc1)c1ccccc1` (stereo not shown) [fluoxetine, reference compound] was tested, and the “submissiveness during first week of treatment” value (submissive rats; fluoxetine 10 mg/kg i.p., Compound #8 treated groups p.o.) was “increased submissiveness during first week of treatment” and the “significant difference between dominant and submissive rats lost” value (submissive rats; submissive rats treated i.p. at 10.0 mg/kg) was “lost after third week of treatment”.

`[Cl-].[Li+]` [lithium chloride, reference compound] was tested, and the “dominance level effect vs control” value (dominant rats; 100 mg/kg) was “significantly different from control only after the third week of treatment”.

In the case of `CNCCCC12CCC(c3ccccc31)c1ccccc12` [maprotyline], the “doses at which effect on immobility was statistically significant vs vehicle” value (Sprague Dawley rats; p.o.) is reported as 30 mg/kg and 60 mg/kg.

For `CCCC(CCC)C(=O)[O-].[Na+]` [sodium valproate, reference compound], the dominance level (dominant rats; 30 mg/kg i.p. QD) was “decreased dominance level after the second week of treatment”, the “difference between dominant and submissive rats lost” value (dominant rats; dominant rats treated i.p. QD at 30 mg/kg) was “lost after first week of treatment” and the “permissiveness of the treated dominant rats” value (dominant rats; treated dominant rats permitted submissive partners to increase time on the feeder) was “observed to increase”.
